The values that follow are results of earlier work, collected in patent publication US9662309B2, “Anti-demodicosis agent” (BAYER INTELLECTUAL PROPERTY GMBH, priority 2004, dated 2017).

The series concerns demodicosis. The settings on record: spot-on treatment 3 times weekly.

On to 22,23-dihydroavermectin B1 [ivermectin], for which the effectiveness against demodicosis entry is reported as “insufficiently effective”.
